Where two headings read alike, the source gives them in different places. Bounds are passed on as bounds.

One assay addresses T1, S1P2 (Homo sapiens, UniProt O95136).
T1 construct: expressed in transfected cells; host or cells: CRE-bla CHOK1
Kind of assay: Specificity over other S1P receptors: S1P2 CRE-bla CHOK1. The class given is cell-based. The settings on record: S1P2 CRE-bla CHOK1, without Forskolin; read-out: S1P2 agonist value (EC50). As to the method:
(§1) Cells were seeded into 384-well black wall/clear bottom plates at 10^4 cells/well/19.5 μl assay media (DMEM-phenol free, 0.5% charcoal/dextran stripped serum, 2 mM glutamine, 0.1 mM NEAA, 1 mM Na-Pyruvate, 25 mM Hepes) and incubated for 18 hrs at 37° C. in 5% CO2. Dose response curves (10-point) were generated in 10 mM Hepes, 0.1% Pluronic F127, in the presence of Forskolin. Cells were treated with 0.5 μl compound in the presence of 2 μM Forskolin for 4 hrs at 37° C. The FRET-based β-lactamase fluorescent substrate (LiveBLAzer™-FRET B/G Loading Kit CC4-AM; Invitrogen) was prepared according to manufacturer's directions, and incubated with cells for 2 hrs at room temperature. Plates were read at Ex:410/Em:458 and Ex:410/Em:522, and the response ratio determined Data was analyzed by non-linear regression to determine the EC50 for inhibition of Forskolin induced cAMP.
(§2) To assess compound specificity on other […] receptors the following cell lines were used: S1P2 CRE-bla CHOK1, S1P3-Gα15 NFAT-bla HEK293T (Invitrogen), S1P4-bla TANGO U2OS (Invitrogen), S1P5-bla TANGO U2OS (Invitrogen). The same assay set up for S1P1 was used but without Forskolin. S1P4 and S1P5 assays were performed in FreeStyle Expression medium (Invitrogen). S1P5 cells were incubated for 48 hrs in prior to treatment with compound.

A further assay has as its target T2, S1P4 (Homo sapiens, UniProt O95977).
T2 construct: Tango fusion: TEV protease site plus GAL4-VP16 transcription factor (own knowledge of the Tango format); host or cells: U2OS (bla TANGO)
T2 sequence (O95977 1-384): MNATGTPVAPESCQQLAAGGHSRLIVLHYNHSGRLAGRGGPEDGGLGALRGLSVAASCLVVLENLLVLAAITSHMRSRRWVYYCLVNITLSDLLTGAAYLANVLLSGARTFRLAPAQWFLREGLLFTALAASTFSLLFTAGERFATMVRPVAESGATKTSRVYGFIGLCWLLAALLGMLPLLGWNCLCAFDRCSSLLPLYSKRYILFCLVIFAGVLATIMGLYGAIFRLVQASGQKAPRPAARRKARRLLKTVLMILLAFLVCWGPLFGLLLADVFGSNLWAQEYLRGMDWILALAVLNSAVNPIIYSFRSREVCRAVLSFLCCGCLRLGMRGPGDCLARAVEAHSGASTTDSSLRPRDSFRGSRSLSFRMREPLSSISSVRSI
Description: Specificity over other S1P receptors: S1P4-bla TANGO U2OS. The class given is cell-based. The settings on record: without Forskolin, read-out: S1P4 agonist value (EC50). As for the experimental part: as §1, with “temperature.” for “temperature. Plates were read at Ex:410/Em:458 and Ex:410/Em:522, and the response ratio determined Data was analyzed by non-linear regression to determine the EC50 for inhibition of Forskolin induced cAMP.”
as §2

For a further assay, the target named is S1P1/EDG1 (Homo sapiens, UniProt P21453). Description: S1P1 CRE-bla CHOK1 reporter assay, inhibition of Forskolin induced cAMP. Format: cell-based. The settings on record: S1P1 CRE-bla CHOK1 cells, 2 μM Forskolin. In a few lines: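 CRE-bla CHO K1 cells stably expressing human S1P1 were treated 4 hrs at 37° C with 10-point compound dilutions plus 2 μM Forskolin. Inhibition of cAMP-driven β-lactamase reporter was read with a FRET substrate loaded 2 hrs at room temperature.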
In general terms: A reporter such as luciferase makes a cellular process visible.

Assay [1] relates to CD4 or CD8 positive T cells. Description: Lymphopenia in rats. Format: in vivo. The settings on record: for inhibition in vivo at 0.2 mg/kg: po, rat, 24 h after a 0.2 mg/kg single dose; for ED50: read-out: ED50 (estimated dose needed to produce 50% lymphopenia), rat, at 24 h after a 3-5 day dosing regimen. As for the experimental part: In rats: Female rats (Simonsen Laboratories, Gilroy Calif.) were housed in an ALAAC accredited facility and the research was approved by the facilities Institutional Animal Care and Use Committee (IACUC). The animals were acclimated to the laboratory for at least 5 days prior to initiation of experiments. Rats (n=3/compound/time-point) were dosed by oral gavage with 1 mg/kg compound formulated in a vehicle consisting of 5% DMSO/5% Tween 20 and 90% 0.1N HCL. Control rats were dosed PO with the vehicle. Whole blood was collected from isoflurane anesthetized rats via the retro-orbital sinus and terminal samples were collected by cardiac puncture into EDTA. Whole blood was incubated with mouse anti-rat CD32 (BD #550271), PE-mouse anti-rat CD45R/B220 (BD #554881), PECy5-mouse anti-rat CD4 (BD #554839), and APC-mouse anti-rat CD8a (eBioscience #17-0084) for 30 minutes on ice. Red blood cells were lysed using BD Pharm Lyse Lysing buffer (#555899) and white blood cells were analyzed with a BD FACSArray. Lymphopenia was expressed as the % of white blood cells that were CD4 or CD8 positive T cells. The overall lymphopenia response over 24 h was estimated by calculating the area under the effect curve (AUEC) using the linear trapezoidal rule. In some experiments, total lymphocyte counts were determined using a standard impedance based veterinary hematology analyzer (IDEXX Preclinical Research Services, Sacramento, Calif.).
The percentage of lymphopenia at 24 h after a 0.2 mg/kg single dose regiment is reported. […] N/A is not available.

The next assay has as its target T3, S1P5 (Homo sapiens, UniProt Q9H228).
T3 construct: Tango fusion: TEV protease site plus GAL4-VP16 transcription factor (own knowledge of the Tango format); host or cells: U2OS (bla TANGO)
Kind of assay: Specificity over other S1P receptors: S1P5-bla TANGO U2OS. Format: cell-based. The settings on record: without Forskolin, read-out: S1P5 agonist value (EC50). As for the experimental part:
as §1, with “temperature.” for “temperature. Plates were read at Ex:410/Em:458 and Ex:410/Em:522, and the response ratio determined Data was analyzed by non-linear regression to determine the EC50 for inhibition of Forskolin induced cAMP.”
as §2

In another assay the target is T4, S1P3 (Homo sapiens, UniProt Q99500).
T4 construct: host or cells: NFAT-bla HEK293T
Description: Specificity over other S1P receptors: S1P3-Gα15 NFAT-bla HEK293T. The class given is cell-based. The settings on record: without Forskolin, read-out: S1P3 agonist value (EC50). As to the method:
as §1, §2

The mark [2] stands for this setting: agonist activity range, read-out: S1P1 ACTIVITY
The mark [3] stands for this setting: read-out: S1P1 agonist value (EC50).

T3 sequence (Q9H228 whole entry, the tested form may be a part): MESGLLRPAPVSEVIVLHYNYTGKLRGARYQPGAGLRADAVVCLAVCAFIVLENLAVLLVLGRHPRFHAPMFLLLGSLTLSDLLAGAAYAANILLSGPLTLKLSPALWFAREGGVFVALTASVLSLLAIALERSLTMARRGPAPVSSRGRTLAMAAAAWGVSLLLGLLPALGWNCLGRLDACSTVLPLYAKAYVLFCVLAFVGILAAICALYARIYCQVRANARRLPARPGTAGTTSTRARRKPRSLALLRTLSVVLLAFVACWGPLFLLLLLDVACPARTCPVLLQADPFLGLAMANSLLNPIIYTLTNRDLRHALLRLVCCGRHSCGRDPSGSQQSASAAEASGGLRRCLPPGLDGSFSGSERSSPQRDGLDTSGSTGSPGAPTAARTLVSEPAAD
T1 sequence (O95136 whole entry, species assumed): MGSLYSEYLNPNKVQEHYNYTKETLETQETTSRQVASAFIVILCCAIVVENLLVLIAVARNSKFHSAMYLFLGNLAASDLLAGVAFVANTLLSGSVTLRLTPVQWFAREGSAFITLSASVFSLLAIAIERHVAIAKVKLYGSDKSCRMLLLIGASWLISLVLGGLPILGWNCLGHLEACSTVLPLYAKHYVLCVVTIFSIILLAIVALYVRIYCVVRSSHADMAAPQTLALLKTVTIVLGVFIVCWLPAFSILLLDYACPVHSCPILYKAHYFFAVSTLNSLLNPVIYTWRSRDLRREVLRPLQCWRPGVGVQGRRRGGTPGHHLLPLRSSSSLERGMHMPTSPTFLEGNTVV
S1P1/EDG1, sequence (P21453 whole entry): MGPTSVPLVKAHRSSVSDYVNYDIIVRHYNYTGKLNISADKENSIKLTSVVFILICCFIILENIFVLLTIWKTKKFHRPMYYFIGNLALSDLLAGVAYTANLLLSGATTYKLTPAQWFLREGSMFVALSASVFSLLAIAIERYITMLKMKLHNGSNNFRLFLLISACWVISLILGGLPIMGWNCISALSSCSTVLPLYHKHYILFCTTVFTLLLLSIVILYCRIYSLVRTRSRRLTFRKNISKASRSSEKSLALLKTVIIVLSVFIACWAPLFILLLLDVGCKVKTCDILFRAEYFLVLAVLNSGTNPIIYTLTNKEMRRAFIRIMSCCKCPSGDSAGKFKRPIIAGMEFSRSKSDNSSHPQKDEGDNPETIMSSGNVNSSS
T4 sequence (Q99500 whole entry): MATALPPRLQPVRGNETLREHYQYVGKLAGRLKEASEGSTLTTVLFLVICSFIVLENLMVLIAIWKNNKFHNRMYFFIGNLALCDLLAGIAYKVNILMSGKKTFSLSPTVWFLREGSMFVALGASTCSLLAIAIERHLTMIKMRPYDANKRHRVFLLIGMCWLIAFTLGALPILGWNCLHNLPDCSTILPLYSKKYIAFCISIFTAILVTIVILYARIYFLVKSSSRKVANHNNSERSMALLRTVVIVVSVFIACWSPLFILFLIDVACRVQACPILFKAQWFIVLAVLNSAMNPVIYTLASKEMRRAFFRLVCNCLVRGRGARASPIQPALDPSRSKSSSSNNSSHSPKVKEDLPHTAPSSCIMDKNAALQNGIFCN

In the case of `CC(C)Oc1ccc(-c2ncc(-c3cccc4c3CC[C@H]4NC(=O)N3CCOCC3)s2)cc1C#N` [Compound 186, (R)—N-(4-(2-(3-cyano-4-isopropoxyphenyl)thiazol-5-yl)-2,3-dihydro-1H-inden-1-yl)morpholine-4-carboxamide], the figures for the EC50 at S1P2, at S1P4 and at S1P1/EDG1 (setting [2]) were over 10 µM, over 10 µM and 0.05 to 0.5 nM, respectively.
Usually inhibition in vivo stands for the change of the read-out against control, counted positive when it falls. As for `CC(C)Oc1ccc(-c2nnc(-c3cccc4c3CC[C@H]4NC(=O)N3CC[C@@H](N(C)C)C3)s2)cc1C#N` [Compound 56, (R)—N—((R)-4-(5-(3-cyano-4-isopropoxyphenyl)-1,3,4-thiadiazol-2-yl)-2,3-dihydro-1H-inden-1-yl)-3-(dimethylamino)pyrrolidine-1-carboxamide], the EC50 was over 10 µM at S1P2; 139 nM on S1P5; over 10 µM on S1P3; over 10 µM on S1P4; 0.32 nM at S1P1/EDG1 (setting [3]); 0.05 to 0.5 nM on S1P1/EDG1 (setting [2]). In assay [1], this compound returned an inhibition in vivo at 0.2 mg/kg of 52%.
Take `CC(C)Oc1ccc(-c2nnc(-c3cccc4c3CC[C@H]4NC(=O)N3CCOCC3)s2)cc1C#N` [Compound 58, (R)—N-(4-(5-(3-cyano-4-isopropoxyphenyl)-1,3,4-thiadiazol-2-yl)-2,3-dihydro-1H-inden-1-yl)morpholine-4-carboxamide]: the EC50 is over 10 µM on S1P2, over 10 µM on S1P4 and 0.05 to 0.5 nM on S1P1/EDG1 (setting [2]).
As to `CC(C)Oc1ccc(-c2nnc(-c3cccc4c3CCC4NS(=O)(=O)CC(=O)N(C)C)s2)cc1C#N` (stereo in doubt) [Compound 43, (R)-2-(N-(4-(5-(3-cyano-4-isopropoxyphenyl)-1,3,4-thiadiazol-2-yl)-2,3-dihydro-1H-inden-1-yl)sulfamoyl)-N,N-dimethylacetamide], the EC50 at S1P2, at S1P3 and on S1P4 was over 10 µM each time. At 0.2 mg/kg the inhibition in vivo in assay [1] was 40%.
A word on the ED50: it is the dose at which the effect has come halfway, by size or by number of responders. In the case of `CC(C)Oc1ccc(-c2ncc(-c3cccc4c3CC[C@H]4NC(=O)N3CCCC3)s2)cc1C#N` [Compound 172, (R)—N-(4-(2-(3-cyano-4-isopropoxyphenyl)thiazol-5-yl)-2,3-dihydro-1H-inden-1-yl)pyrrolidine-1-carboxamide], the EC50 on S1P2 is over 10 µM; on S1P5, 203 nM; on S1P3, over 10 µM; on S1P4 it was over 10 µM; at S1P1/EDG1 (setting [3]) it was 0.19 nM; on S1P1/EDG1 (setting [2]) it was 0.05 to 0.5 nM. This compound came in with an inhibition in vivo at 0.2 mg/kg in assay [1] of 22%. Further, the ED50 in assay [1] was 0.2 mg/kg.
Regarding `CC(C)Oc1ccc(-c2ncc(-c3cccc4c3CC[C@H]4NS(N)(=O)=O)s2)cc1C#N` [Compound 166, (R)—N-(4-(2-(3-cyano-4-isopropoxyphenyl)thiazol-5-yl)-2,3-dihydro-1H-inden-1-yl)sulfamide], the EC50 at S1P2 was 8.45 µM; on S1P5, 64 nM; on S1P3, over 10 µM; at S1P4 it was 0.743 µM; at S1P1/EDG1 (setting [3]), 0.14 nM; on S1P1/EDG1 (setting [2]), 0.05 to 0.5 nM. This compound also displayed an inhibition in vivo at 0.2 mg/kg in assay [1] of 47%. The ED50 in assay [1] was 0.07 mg/kg.
As to `CC(C)Oc1ccc(-c2nnc(-c3cccc4c3CCC4NS(=O)(=O)CCO)s2)cc1C#N` (stereo in doubt) [Compound 46, (R)—N-(4-(5-(3-cyano-4-isopropoxyphenyl)-1,3,4-thiadiazol-2-yl)-2,3-dihydro-1H-inden-1-yl)-2-hydroxyethanesulfonamide], the EC50 on S1P2 and at S1P3 was over 10 µM each time. In assay [1], the inhibition in vivo at 0.2 mg/kg came to 39%.

Values taken from patent US9481659B2, “Selective heterocyclic sphingosine 1 phosphate receptor modulators” (Celgene International II SÀRL, priority 2011, dated 2016).
